# Entries after “also recorded” stand apart in the source; their conditions may differ. *1 amine or outer side, *2 acyl side, *3 side chain or, on linkers, in order; H or OH if unused. Where a SMILES comes first, the peptide text is derived from it. Where no end group is shown, it is not given here. [ ]: non-standard residue; d: D form. Abu(3R-Me,4-PO3H2) = C[C@@H](CP(=O)(O)O)[C@H](N)C(=O)O; X1 = C[C@H]([C@H](N[*:1])C(=O)[*:2])C(F)(F)P(=O)(O)O; pT = C[C@@H](OP(=O)(O)O)[C@H](N)C(=O)O
# T1: Plk2 PBD (Homo sapiens, UniProt Q9NYY3)
# T1 sequence (Q9NYY3 373-685): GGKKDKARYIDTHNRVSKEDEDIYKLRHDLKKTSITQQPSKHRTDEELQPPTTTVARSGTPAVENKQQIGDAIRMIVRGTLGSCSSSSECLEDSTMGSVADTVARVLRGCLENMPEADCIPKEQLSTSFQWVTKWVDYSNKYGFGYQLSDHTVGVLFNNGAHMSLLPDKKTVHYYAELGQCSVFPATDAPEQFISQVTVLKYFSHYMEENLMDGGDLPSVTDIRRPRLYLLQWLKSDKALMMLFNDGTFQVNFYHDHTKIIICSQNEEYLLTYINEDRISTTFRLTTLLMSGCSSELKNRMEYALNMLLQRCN
# T2: recombinant Plk2 PBD (residues 373 to 685) (human) (UniProt Q9NYY3)
# T2 sequence (looked up): T1 sequence (Q9NYY3 373-685)
# B1: PLQSpT (peptide)
# peptide: PLQS[pT]
# B2: MQSpTPL (peptide)
# peptide: MQS[pT]PL
# B3: PLHA-Pmab (peptide)
# peptide: PLHA[Abu(3R-Me,4-PO3H2)]
# notes: also called 24; Pmab(S77A)
# Key:
# [1] = Toxicity in cell-based experiments
# Plk2 = biological target: T3, Plk2 (Mus musculus, UniProt P53351, K108M); experiment: Peptide pull-down assay with bead-immobilized peptides, Plk2; type: binding
# T3 construct: expressed in transfected cells
# T3 sequence (P53351 whole entry K108M): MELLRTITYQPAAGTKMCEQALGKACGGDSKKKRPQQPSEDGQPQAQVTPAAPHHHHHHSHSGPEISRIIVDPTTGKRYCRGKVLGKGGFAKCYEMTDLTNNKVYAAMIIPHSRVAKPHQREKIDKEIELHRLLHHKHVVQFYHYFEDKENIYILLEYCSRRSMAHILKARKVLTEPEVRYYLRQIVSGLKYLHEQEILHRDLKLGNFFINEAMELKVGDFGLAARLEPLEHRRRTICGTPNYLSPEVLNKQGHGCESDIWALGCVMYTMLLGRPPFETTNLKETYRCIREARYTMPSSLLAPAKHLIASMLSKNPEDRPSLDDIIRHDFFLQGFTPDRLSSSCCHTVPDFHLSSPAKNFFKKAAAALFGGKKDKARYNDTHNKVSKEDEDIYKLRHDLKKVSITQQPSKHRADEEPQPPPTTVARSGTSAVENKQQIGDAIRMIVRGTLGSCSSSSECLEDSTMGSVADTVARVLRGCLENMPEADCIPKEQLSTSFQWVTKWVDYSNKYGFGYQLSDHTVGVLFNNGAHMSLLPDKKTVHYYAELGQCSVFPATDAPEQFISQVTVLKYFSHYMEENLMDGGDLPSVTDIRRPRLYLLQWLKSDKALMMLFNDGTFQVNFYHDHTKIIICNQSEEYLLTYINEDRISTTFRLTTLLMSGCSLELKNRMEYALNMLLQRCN
# Experimental: After incubating the cell lysates prepared in TBSN buffer {20 mM Tris-Cl (pH8.0), 150 mM NaCl, 0.5% Np-40, 5 mM EGTA, 1.5 mM EDTA, 20 mM p-nitrophenylphosphate and protease inhibitor cocktail (Roche, Nutley, N.J.)} with the bead-immobilized ligands for 2 h at 4° C., the ligand-associating proteins were precipitated, washed, boiled in sodium dodecyl sulfate (SDS) sample buffer, separated by 8% SDS-polyacrylamide gel electrophoresis (PAGE), and then subjected to immunoblotting analysis with anti-Flag antibody and the enhanced chemilunimescence (ECL) detection system (Pierce). The same membrane was also stained with Coomassies (CBB). Signal intensities were quantified using Image J program.
# To investigate the binding specificity of p-T78 peptides to various Plks, Flag-Plk1 (K82M), Flag-Plk2(K108M)3 or Flag-Plk3(K52R) (a gift of Wei Dai, New York University School of Medicine, NY) construct was first transfected into HeLa cells. Cellular lysates were prepared as above, mixed, and then incubated in TBSN buffer with the immobilized peptides indicated.
# Plk3 = biological target: T4, Plk3 (Homo sapiens, UniProt Q9H4B4, K91R); experiment: Peptide pull-down assay with bead-immobilized peptides, Plk3; type: binding
# T4 construct: expressed in transfected cells; construct a gift of Wei Dai
# T4 sequence (Q9H4B4 40-646 K91R limits assumed): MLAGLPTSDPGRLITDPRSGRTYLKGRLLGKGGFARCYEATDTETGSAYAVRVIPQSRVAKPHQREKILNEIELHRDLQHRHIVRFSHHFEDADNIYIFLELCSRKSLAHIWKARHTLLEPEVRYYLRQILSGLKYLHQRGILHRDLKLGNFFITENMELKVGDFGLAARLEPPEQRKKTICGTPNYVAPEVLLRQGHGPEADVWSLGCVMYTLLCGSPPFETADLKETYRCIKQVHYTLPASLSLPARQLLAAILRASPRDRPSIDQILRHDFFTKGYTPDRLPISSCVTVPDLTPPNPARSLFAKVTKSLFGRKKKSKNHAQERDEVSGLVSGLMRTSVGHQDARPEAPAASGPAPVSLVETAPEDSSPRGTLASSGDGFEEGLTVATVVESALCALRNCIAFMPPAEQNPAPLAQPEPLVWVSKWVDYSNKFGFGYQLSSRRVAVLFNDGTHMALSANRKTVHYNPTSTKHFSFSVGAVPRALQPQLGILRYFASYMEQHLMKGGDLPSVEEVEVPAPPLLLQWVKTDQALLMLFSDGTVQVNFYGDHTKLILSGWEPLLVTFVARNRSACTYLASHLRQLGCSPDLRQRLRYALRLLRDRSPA
# HeLa cells [2] = experiment: Direct treatment of cultured HeLa cells (mitotic arrest, apoptotic cell death, Plk1 localization); type: cell-based; conditions: 200 μM
# Plk1 PBD = Plk1 PBD (Homo sapiens, UniProt P53350); experiment: ELISA-based PBD-binding inhibition assay (immobilized biotinylated p-T78 peptide, HA-EGFP-Plk1 lysates); conditions: relative to the comparator named in the sentence
# Chain of Plk1 PBD (P53350 whole entry): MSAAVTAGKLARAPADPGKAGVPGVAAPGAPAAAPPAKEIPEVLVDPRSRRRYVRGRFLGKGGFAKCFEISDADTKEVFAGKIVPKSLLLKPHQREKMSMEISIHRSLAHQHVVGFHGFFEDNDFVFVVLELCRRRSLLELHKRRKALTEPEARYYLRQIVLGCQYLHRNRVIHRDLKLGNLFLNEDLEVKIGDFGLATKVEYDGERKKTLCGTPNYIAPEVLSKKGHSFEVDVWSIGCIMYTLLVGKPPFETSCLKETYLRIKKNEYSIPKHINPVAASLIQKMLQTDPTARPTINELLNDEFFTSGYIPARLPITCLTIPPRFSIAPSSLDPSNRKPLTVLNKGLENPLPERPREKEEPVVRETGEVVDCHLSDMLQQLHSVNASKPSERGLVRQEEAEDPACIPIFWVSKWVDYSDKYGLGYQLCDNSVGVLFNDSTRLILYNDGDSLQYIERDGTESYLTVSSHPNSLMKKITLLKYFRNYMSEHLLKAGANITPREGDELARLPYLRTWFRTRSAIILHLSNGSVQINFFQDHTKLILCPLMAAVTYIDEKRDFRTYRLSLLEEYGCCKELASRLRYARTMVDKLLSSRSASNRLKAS
# Experimental: The wells were washed once with PBS plus 0.05% Tween20 (PBST), and incubated with 200 μl of PBS plus 1% BSA (blocking buffer) for 1 h to prevent non-specific binding. […] Following the incubation, ELISA plates were washed 4 times with PBST. To detect bound HA-EGFP-Plk1, the plates were probed for 2 h with 100 μl/well of anti-HA antibody at a concentration of 0.5 μg/ml in blocking buffer and then washed 5 times. The plates were further probed for 1 h with 100 μl/well of HRP-conjugated secondary antibody (GE Healthcare, Piscataway, N.J.) at a 1:1,000 dilution in blocking buffer. The plates were washed 5 times with PBST and incubated with 100 μl/well of 3,3′,5,5′-tetramethylbenzidine (TMB) solution (Sigma, St. Louis, Mo.) as a substrate until a desired absorbance was reached. […] The optical density (O.D.) was measured at 450 nm by using an ELISA plate reader (Molecular Devices, Sunnyvale, Calif.).
# A biotinylated p-T78 peptide was first diluted with IX coating solution (KPL Inc., Gaithersburg, Md.) to a final concentration of 0.3 μM, and then 100 μL of the resulting solution was immobilized onto a 96-well streptavidin-coated plate (Nalgene Nunc, Rochester, N.Y.). […] The plates were washed 5 times with PBST and incubated with 100 μL/well of 3,3′,5,5′-tetramethylbenzidine (TMB) substrate solution (Sigma, St. Louis, Mo.) until a desired absorbance was achieved. […]
# Plk1 = biological target: T5, Plk1 (Homo sapiens, UniProt P53350); experiment: Peptide pull-down assay with bead-immobilized peptides, Plk1; type: binding; conditions: mitotic cell lysates
# T5 construct: we used total lysates prepared from mitotic HeLa cells; endogenous in cells; host or cells: mitotic (nocodazole-arrested) HeLa cells
# T5 sequence (P53350 2-603): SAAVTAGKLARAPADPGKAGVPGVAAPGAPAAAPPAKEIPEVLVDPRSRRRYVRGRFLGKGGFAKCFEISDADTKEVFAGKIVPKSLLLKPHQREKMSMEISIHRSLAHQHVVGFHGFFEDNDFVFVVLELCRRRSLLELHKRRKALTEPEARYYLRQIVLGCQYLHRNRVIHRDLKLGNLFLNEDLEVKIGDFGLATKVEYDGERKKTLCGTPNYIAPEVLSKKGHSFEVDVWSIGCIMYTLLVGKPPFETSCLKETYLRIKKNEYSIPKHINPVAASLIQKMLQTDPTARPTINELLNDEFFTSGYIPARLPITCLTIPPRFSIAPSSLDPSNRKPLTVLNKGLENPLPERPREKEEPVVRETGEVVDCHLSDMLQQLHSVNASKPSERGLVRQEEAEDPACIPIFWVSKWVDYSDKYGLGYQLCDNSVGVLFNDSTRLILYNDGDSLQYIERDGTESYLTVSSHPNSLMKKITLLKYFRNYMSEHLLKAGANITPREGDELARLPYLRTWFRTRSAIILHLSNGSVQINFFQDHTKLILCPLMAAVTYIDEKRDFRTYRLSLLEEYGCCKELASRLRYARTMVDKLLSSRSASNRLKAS
# Experimental: For Plk1 pull-down assays with immobilized peptides, we used total lysates prepared from mitotic HeLa cells. […] Cells treated with 200 ng/ml of nocodazole for 16 h were lysed in TBSN buffer {20 mM Tris-Cl (pH8.0), 150 mM NaCl, 0.5% NP-40, 5 mM EGTA, 1.5 mM EDTA, 0.5 mM Na3VO4, 20 mM p-nitrophenyl phosphate, and protease inhibitor cocktail (Roche, Nutley, N.J.)}, and then clarified by centrifugation at 15,000×g for 20 min at 4° C. The resulting lysates were incubated with bead-immobilized peptides (40 μM per binding) for 2 h, precipitated, washed, and then boiled in sodium dodecyl sulfate (SDS) sample buffer to elute the associated proteins. Samples were separated by 10% SDS-polyacrylamide gel electrophoresis (PAGE), and then either stained with silver or transferred to PVDF membrane for immunoblotting analysis with anti-Plk1 antibody using the enhanced chemiluminescence (ECL) detection system (Pierce). […]
# [3] = biological target: Plk1 PBD-p-Cdc25C interaction (Homo sapiens, UniProt P53350); experiment: Competition of the PBD-p-Cdc25C interaction in mitotic HeLa lysates; type: binding; conditions: GST-PBD
# Chain of Plk1 PBD-p-Cdc25C interaction (P53350 326-603 limits assumed): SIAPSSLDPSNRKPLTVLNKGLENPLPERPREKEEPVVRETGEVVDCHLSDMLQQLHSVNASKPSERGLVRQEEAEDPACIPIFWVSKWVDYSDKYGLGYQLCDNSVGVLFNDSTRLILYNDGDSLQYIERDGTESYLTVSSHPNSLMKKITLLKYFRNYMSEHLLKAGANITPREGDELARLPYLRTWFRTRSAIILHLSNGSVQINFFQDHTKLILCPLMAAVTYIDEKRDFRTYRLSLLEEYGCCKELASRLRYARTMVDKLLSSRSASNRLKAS
# Experimental: For p-Cdc25C pull-down assays, either bead-bound GST-PBD or the corresponding GST-PBD(H538A K540M) mutant was incubated with mitotic HeLa lysates in TBSN buffer supplemented with 2 mM DTT. To test the ability of the indicated peptides to compete the PBD-p-Cdc25C interaction, lysates were pre-incubated with GST-PBD for 1.5 h prior to the addition of the indicated peptides. Lysates were then incubated for additional 1.5 h, washed in the binding buffer, and then analyzed. For competition of the interaction between p-Cdc25C and endogenous Plk1, mitotic lysates were prepared in TBSN and incubated with the indicated peptides for 1 h before subjecting to immunoprecipitation with anti-Plk1 antibody.
# Plk2 PBD = biological target: T1, Plk2 PBD; experiment: Isothermal titration calorimetry with recombinant Plk2 PBD
# Experimental: The calorimetric titrations were carried out using purified recombinant PBDs (for Plk1 and Plk2) from bacterial cells and the indicated peptides.
# The calorimetric titrations were performed on a VP-ITC titration calorimeter (Microcal, Inc., Northampton, Mass.). In a typical experiment, 5 l aliquots of a phosphorylated peptide were injected from a 250 l syringe into a rapidly mixing (300 rpm) solution of Plk1 PBD (cell volume=1.3472 ml). Control experiments involved injecting identical amounts of the peptide solution into buffer without Plk1 PBD. […] Titrations were carried out at 25° C. in 20 mM Tris-Cl (pH 7.5), 100 mM NaCl, 3 mM DTT. The isotherms, corrected for dilution/buffer effects, were fit using the Origin ITC Analysis software according to manufacturer's protocols. A nonlinear least-square method was used to fit the titration data and to calculate the errors. Consistent with the structural data, a 1:1 stoichiometry was assumed and the data were fit to a one-site binding model. From the binding curve, values for enthalpy and binding affinity were extracted. Thermodynamic parameters were calculated using ΔG=−RTlnKa, ΔG=ΔH−TΔS.
# Full length PBD was dialyzed against a low salt buffer (20 mM Tris-Cl, pH 7.5, 100 mM NaCl, 3 mM DTT), and used in calorimetry experiments.
# HeLa cells [4] = conditions: Yun et al. 2009; cited from earlier work
# [5] = biological target: T2, recombinant Plk2 PBD (residues 373 to 685) (human); experiment: ITC
# Flag-Plk2 (K108M) [6] = biological target: Flag-Plk2 (K108M) (UniProt Q9NYY3); experiment: assay not stated at this place (peptide pull-down by paragraph 548)
# [7] = biological target: T2, recombinant Plk2 PBD (residues 373 to 685) (human); experiment: ITC; saturable binding not observed
# Flag-Plk2 (K108M) [8] = biological target: Flag-Plk2 (K108M) (UniProt Q9NYY3); experiment: pull-down with bead-immobilized peptide, mixed Flag-Plk1/2/3 lysates (HeLa)
# Flag-Plk1 (K82M) = Flag-Plk1 (K82M) (UniProt P53350 1-603); experiment: pull-down with bead-immobilized peptide, mitotic HeLa lysate
# Chain of Flag-Plk1 (K82M) (P53350 whole entry K82M): as the sequence (P53350 whole entry) above, with K82M counted along it
# HA-EGFP-Plk1 [9] = biological target: T6, HA-EGFP-Plk1 (UniProt P53350 1-603); experiment: competition ELISA, HA-EGFP-Plk1 lysate on immobilized biotin p-T78 9-mer
# T6 construct: In lysates of mitotic 293A cells infected with adenovirus expressing HA-EGFP-Plk1
# T6 sequence (P53350 whole entry): as the sequence (P53350 whole entry) above
# HA-EGFP-Plk1 [10] = biological target: T6, HA-EGFP-Plk1; experiment: ELISA-based PBD-binding inhibition assay: peptide as competitor of the immobilized biotinylated 9-mer p-T78 peptide for HA-EGFP-Plk1 in mitotic 293A cell lysate; bound Plk1 detected with anti-HA, OD 450 nm
molecule,measurement,setting,value
"CC(=O)N1CCC[C@H]1C(=O)N[C@@H](CC(C)C)C(=O)N[C@@H](Cc1c[nH]cn1)C(=O)N[C@@H](CO)C(=O)N[C@H](C(=O)N[C@@H](C)C(N)=O)[C@@H](C)C(F)(F)P(=O)(O)O [compound 25, PLHS-F2Pmab-A] (Ac-PLHS[X1]A-NH2)",toxicity,[1],significant toxicity
COCCOCCOCCOCCOCCOCCOCCOCCC(=O)N1CCC[C@H]1C(=O)N[C@@H](CC(C)C)C(=O)N[C@@H](Cc1cncn1CCCCCCCCc1ccccc1)C(=O)N[C@@H](CO)C(=O)N[C@H](C(N)=O)[C@@H](C)CP(=O)(O)O [PEG-4j*],"Plk2 binding / precipitation in pull-down, in words",Plk2,failed to significantly interact
same,"Plk3 binding / precipitation in pull-down, in words",Plk3,failed to significantly interact
same,Plk1 delocalization and misaligned chromosomes,HeLa cells [2],"drastic Plk1 delocalization from centrosomes and kinetochores, and severe misaligned chromosomes"
same,mitotic arrest / apoptotic cell death / cellular response,HeLa cells [2],effectively induced mitotic arrest and apoptotic cell death
CC(=O)N[C@@H](CC(C)C)C(=O)N[C@@H](Cc1c[nH]cn1)C(=O)N[C@@H](CO)C(=O)N[C@H](C(=O)N[C@@H](C)C(N)=O)[C@@H](C)OP(=O)(O)O [LHSpTA],"Plk1 PBD-binding affinity / inhibition, in words",Plk1 PBD,inhibited the PBD at a moderately reduced level
same,"Plk1 binding / precipitation in pull-down, in words",Plk1,bound to Plk1 almost as efficiently as PLHSpT
same,disruption of the pre-formed PBD-p-Cdc25C complex,[3],disrupted the pre-formed PBD-p-Cdc25C complex nearly as efficiently as PLHSpT
same,"interaction with Plk2 PBD by calorimetry, in words",Plk2 PBD,virtually no interactions with Plk2
"CC(=O)N1CCC[C@H]1C(=O)N[C@@H](CC(C)C)C(=O)N[C@@H](Cc1c[nH]cn1)C(=O)N[C@@H](CO)C(=O)N[C@H](C(N)=O)[C@@H](C)OP(=O)(O)O [compound 1, PLHSpT]",mitotic arrest / apoptotic cell death / cellular response,HeLa cells [2],failed to elicit a detectable cellular response; also recorded: failed to generate a detectable level of cellular effect
same,Plk1 localization and apoptotic cell death after microinjection,HeLa cells [4],interferes with proper subcellular localization of Plk1 and induces apoptotic cell death
B1,initial heats of interaction,[5],-1.1 kcal/mol
same,fold increase of Plk2 binding,Flag-Plk2 (K108M) [6],24 fold
B2,initial heats of interaction,[7],-1.68 kcal/mol
same,efficiency of precipitation relative to Plk1,Flag-Plk2 (K108M) [8],27%
B3,binding result,Flag-Plk1 (K82M),no binding
same,fold higher molar concentration without inhibition,HA-EGFP-Plk1 [9],> 1000 fold
same,binding result,HA-EGFP-Plk1 [10],no binding (tested: 300 µM)
